Results taken from publication PMC4503722, “Novel Phenotypic Outcomes Identified for a Public Collection of Approved Drugs from a Publicly Accessible Panel of Assays” (PLoS ONE, 2015).
Where two headings read alike, the source gives them in different places.

Tests used:
[1] = test system: NCI-H716 cells; test: cells; format: cell-based, Human; details: Homo sapiens
[2] = test system: nuclear β-catenin in C2C12 cells; test: cells; format: cell-based; details: Mus musculus
[3] = molecular target: T1, hFLT3 (Homo sapiens, UniProt P36888); test: Cerep LANCE kinase assay hFLT3 (S1 assay 35); format: biochemical
T1 construct: purchased Cerep (LANCE kinase assay platform, contract assay)
T1 sequence (P36888 27-993): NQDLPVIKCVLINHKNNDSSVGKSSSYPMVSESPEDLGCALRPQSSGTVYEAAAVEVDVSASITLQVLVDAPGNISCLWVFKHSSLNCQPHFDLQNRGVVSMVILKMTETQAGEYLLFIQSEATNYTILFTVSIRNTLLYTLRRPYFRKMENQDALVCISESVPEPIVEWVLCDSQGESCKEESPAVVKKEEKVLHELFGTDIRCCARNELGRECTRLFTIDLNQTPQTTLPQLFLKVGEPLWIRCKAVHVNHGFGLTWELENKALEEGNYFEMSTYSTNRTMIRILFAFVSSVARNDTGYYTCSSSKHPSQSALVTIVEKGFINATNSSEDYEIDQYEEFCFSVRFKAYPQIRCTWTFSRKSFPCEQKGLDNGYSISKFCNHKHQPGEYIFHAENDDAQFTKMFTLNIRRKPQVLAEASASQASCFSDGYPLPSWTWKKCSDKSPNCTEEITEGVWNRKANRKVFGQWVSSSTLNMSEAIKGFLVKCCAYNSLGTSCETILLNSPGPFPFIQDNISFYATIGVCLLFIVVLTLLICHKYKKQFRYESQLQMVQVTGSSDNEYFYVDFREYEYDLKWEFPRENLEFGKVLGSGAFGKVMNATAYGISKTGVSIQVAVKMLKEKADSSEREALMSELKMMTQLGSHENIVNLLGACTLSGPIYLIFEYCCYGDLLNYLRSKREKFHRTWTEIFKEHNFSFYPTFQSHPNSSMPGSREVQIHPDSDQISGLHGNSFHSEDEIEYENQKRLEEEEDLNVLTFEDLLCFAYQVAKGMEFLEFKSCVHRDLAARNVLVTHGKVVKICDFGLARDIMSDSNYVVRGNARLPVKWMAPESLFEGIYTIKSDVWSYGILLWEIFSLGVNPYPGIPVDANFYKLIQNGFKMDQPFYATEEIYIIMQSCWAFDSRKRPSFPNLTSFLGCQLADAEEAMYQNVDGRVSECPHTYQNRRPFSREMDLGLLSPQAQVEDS

[4] = test system: Colo320; test: cells; format: cell-based; details: Homo sapiens
[5] = test system: DLD-1; test: cells; format: cell-based; details: Homo sapiens
[6] = test system: HCT116; test: cells; format: cell-based; details: Homo sapiens
[7] = test system: SW480; test: cells; format: cell-based; details: Homo sapiens
[8] = test system: HT-29; test: cells; format: cell-based
[9] = test system: RKO; test: cells; format: cell-based
[10] = molecular target: T2, hKDR (Homo sapiens, UniProt P35968); test: Cerep LANCE kinase assay hKDR (S1 assay 32); format: biochemical
T2 construct: purchased Cerep (LANCE kinase assay platform, contract assay)
T2 sequence (P35968 20-1356): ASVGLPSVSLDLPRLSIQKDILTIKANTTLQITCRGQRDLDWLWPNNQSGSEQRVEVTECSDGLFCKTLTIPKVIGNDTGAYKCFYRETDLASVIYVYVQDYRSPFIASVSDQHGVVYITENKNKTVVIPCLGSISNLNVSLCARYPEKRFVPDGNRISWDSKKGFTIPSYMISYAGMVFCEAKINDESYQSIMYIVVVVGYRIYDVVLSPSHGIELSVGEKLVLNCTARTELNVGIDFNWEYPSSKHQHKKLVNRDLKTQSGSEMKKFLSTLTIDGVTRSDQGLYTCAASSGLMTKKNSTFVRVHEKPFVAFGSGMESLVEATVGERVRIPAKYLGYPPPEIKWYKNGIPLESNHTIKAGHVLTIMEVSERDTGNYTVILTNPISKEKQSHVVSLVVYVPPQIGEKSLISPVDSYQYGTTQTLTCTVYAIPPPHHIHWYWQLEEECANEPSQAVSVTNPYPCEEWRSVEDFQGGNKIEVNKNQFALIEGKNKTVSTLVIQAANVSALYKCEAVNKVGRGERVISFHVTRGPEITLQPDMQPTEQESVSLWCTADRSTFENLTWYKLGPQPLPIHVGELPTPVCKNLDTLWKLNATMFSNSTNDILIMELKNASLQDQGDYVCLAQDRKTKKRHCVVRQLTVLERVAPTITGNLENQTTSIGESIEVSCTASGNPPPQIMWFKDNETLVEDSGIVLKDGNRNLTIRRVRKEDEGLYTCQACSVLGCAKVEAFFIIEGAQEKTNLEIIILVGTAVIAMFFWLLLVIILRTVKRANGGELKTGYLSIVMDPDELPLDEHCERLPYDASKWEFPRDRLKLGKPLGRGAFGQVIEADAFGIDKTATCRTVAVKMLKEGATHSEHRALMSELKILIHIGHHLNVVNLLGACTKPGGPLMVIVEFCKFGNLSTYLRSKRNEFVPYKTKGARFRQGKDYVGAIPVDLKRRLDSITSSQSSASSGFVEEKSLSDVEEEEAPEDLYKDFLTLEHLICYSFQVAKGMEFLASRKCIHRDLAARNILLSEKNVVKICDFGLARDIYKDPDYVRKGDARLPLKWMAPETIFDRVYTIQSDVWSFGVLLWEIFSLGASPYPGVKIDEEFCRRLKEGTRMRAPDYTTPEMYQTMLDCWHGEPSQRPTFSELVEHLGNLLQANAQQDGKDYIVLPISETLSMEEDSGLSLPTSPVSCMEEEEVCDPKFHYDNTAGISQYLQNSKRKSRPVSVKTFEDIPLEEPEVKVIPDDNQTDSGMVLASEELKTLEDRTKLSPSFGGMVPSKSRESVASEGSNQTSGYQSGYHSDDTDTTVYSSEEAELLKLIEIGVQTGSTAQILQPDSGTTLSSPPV

[11] = molecular target: T3, hJAK2 (Homo sapiens, UniProt O60674); test: Cerep LANCE kinase assay hJAK2 (S1 assay 33); format: biochemical
T3 construct: purchased Cerep (LANCE kinase assay platform, contract assay)
T3 sequence (O60674 whole entry): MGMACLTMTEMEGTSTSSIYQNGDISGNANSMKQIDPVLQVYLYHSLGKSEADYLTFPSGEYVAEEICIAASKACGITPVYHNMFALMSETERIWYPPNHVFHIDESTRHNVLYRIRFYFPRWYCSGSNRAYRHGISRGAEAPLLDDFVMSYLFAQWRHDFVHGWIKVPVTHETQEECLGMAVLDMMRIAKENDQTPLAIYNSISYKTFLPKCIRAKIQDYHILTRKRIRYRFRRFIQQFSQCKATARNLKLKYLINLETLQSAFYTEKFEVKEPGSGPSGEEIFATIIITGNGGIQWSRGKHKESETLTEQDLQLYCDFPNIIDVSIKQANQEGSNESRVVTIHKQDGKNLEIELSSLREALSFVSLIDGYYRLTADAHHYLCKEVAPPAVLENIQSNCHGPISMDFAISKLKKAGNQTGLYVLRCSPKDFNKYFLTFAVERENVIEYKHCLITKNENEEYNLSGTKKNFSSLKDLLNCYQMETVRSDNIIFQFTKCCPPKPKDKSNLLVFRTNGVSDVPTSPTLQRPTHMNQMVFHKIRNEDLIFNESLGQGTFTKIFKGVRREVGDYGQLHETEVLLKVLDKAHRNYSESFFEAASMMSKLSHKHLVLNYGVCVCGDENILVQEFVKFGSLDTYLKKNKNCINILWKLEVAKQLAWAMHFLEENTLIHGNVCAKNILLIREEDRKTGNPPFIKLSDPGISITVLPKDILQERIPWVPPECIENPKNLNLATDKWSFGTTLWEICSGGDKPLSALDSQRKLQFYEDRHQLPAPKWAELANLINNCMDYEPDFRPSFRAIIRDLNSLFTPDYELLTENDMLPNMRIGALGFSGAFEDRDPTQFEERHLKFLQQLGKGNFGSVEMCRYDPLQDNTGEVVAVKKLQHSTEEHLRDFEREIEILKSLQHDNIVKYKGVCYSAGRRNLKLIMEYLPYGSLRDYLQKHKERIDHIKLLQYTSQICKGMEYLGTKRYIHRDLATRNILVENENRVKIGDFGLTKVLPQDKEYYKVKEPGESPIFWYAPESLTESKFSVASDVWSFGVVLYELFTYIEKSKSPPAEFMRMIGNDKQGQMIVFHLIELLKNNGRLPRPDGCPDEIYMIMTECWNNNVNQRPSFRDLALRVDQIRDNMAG

[12] = test system: HeLa cells; test: cells; format: cell-based; details: Homo sapiens, HeLa, read-out: CellCycle G2/M
[13] = molecular target: T4, hGSK3b (Homo sapiens, UniProt P49841); test: Cerep LANCE kinase assay hGSK3b (S1 assay 34); format: biochemical
T4 construct: purchased Cerep (LANCE kinase assay platform, contract assay)
T4 sequence (P49841 whole entry): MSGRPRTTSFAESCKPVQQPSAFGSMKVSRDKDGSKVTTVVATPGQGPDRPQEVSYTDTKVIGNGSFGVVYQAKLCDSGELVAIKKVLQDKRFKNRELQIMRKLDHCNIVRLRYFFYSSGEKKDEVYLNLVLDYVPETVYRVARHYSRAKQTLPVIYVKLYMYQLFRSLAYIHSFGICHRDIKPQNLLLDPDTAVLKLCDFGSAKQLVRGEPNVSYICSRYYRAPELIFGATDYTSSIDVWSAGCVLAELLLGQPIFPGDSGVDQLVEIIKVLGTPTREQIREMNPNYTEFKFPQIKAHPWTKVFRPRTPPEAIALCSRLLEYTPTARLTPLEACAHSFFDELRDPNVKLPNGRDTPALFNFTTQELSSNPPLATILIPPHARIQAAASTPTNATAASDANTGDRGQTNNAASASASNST

[14] = test system: endothelial tube formation in co-cultures of ECFCs and ADSCs treated with VEGF; test: cells; format: cell-based, human; details: Homo sapiens
[15] = test system: SNU-C1; test: cells; format: cell-based; details: Homo sapiens
[16] = test system: INS-1E cells; test: cells; format: cell-based, rat; details: Rattus norvegicus, INS-1E
[17] = molecular target: T5, hp70S6K1 (RPS6KB1) (Homo sapiens, UniProt P23443); test: Cerep LANCE kinase assay hp70S6K1 (S1 assay 31); format: biochemical
T5 construct: purchased Cerep (LANCE kinase assay platform, contract assay)
T5 sequence (P23443 whole entry): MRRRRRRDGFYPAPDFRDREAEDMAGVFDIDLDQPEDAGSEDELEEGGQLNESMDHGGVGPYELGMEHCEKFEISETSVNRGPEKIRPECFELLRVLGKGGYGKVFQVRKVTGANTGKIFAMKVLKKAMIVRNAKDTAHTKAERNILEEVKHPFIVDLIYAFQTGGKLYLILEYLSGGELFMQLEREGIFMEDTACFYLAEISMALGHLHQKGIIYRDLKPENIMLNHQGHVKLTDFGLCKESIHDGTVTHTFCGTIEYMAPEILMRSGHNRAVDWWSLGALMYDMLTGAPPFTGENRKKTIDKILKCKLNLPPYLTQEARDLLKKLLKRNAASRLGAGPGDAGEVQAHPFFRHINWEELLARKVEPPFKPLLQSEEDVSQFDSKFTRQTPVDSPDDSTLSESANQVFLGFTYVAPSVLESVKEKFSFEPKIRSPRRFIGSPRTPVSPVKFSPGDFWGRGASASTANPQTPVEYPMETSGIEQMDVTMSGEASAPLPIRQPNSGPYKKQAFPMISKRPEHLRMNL

[18] = test system: HCT116 cells treated with a GSK3β inhibitor; test: cells; format: cell-based; details: Homo sapiens
[19] = NCI-H716, read-out: GLP 1 Secretion
[20] = COLO 320, read-out: Basal_Viability ATP Colo 320
[21] = DLD-1, read-out: Basal_Viability ATP DLD-1
[22] = HCT-116, read-out: Basal_Viability ATP HCT116
[23] = SW480, read-out: Basal_Viability ATP SW480
[24] = Homo sapiens, HT-29, read-out: Basal_Viability ATP HT-29
[25] = Homo sapiens, RKO, read-out: Basal_Viability ATP RKO
[26] = SNU-C1, read-out: Basal_Viability ATP SNU-C1
[27] = kinase assay, read-out: p70S6K1
[28] = HCT-116, read-out: GSK3b inh pretreated_Viability ATP HCT116
[29] = NCI-H716, read-out: GLP1 sec. EC50
[30] = COLO 320, 72 h, read-out: Colo320 viab. IC50
[31] = DLD-1, 72 h, read-out: DLD-1 viab. IC50
[32] = HCT-116, 72 h, read-out: HCT-116 viab. IC50
[33] = SW480, 72 h, read-out: SW480 viab. IC50
[34] = Homo sapiens, HT-29, 72 h, read-out: HT-29 viab. IC50
[35] = Homo sapiens, RKO, 72 h, read-out: RKO viab. IC50
[36] = SNU-C1, 72 h, read-out: SNU-C1 viab. IC50
[37] = HCT-116, 72 h, read-out: HCT-116 (GSK3β) viab. IC50

Compound	EC50 [1, 19]	EC50 ([2]; C2C12, read-out: Wnt Pathway)	IC50 ([3]; kinase assay, read-out: FLT3)	IC50 [4, 20]	IC50 [5, 21]	IC50 [6, 22]	IC50 [7, 23]	IC50 [8, 24]	IC50 [9, 25]	IC50 ([10]; kinase assay, read-out: KDR)	IC50 ([11]; kinase assay, read-out: JAK2)	EC50 [12]	IC50 ([13]; kinase assay, read-out: GSK3b)	IC50 ([14]; read-out: Anti-Angiogenesis)	IC50 [15, 26]	EC50 ([16]; read-out: Insulin Secretion)	IC50 [17, 27]	IC50 [18, 28]	IC50 ([3]; read-out: FLT3)	IC50 ([10]; read-out: KDR)	also measured
Nc1nc2nc[nH]c2c(=S)[nH]1 [Tioguanine]	> 10000 nM	> 10000 nM	> 20000 nM	373 nM	108 nM	139 nM	402 nM	49.3 nM	343 nM	> 20000 nM	> 20000 nM	> 10000 nM	> 20000 nM	622 nM	4400 nM	> 10000 nM	> 20000 nM	163 nM			
O=c1c(-c2ccccc2)c1-c1ccccc1 [Diphenylcyclopropenone]	> 10000 nM	3620 nM	> 20000 nM	3100 nM	4210 nM	> 20000 nM	> 20000 nM	> 20000 nM	> 20000 nM	> 20000 nM	> 20000 nM	> 10000 nM	> 20000 nM	3840 nM	> 20000 nM	> 10000 nM	> 20000 nM	7710 nM			
Oc1c(I)cc(I)c2cccnc12 [Diiodohydroxyquinoline]	> 10000 nM	> 10000 nM	> 20000 nM	21.3 nM	17.8 nM	41 nM	3.6 nM	705 nM	22.7 nM	> 20000 nM	> 20000 nM	> 10000 nM	> 20000 nM	2390 nM	38.7 nM	> 10000 nM	> 20000 nM	66.7 nM			
Cc1nc(N)nc(N)c1-c1ccc(Cl)c(Cl)c1 [metoprine, reference compound]		29.9 nM	> 20000 nM	2030 nM	634 nM	413 nM	512 nM	932 nM	117 nM	> 20000 nM	> 20000 nM	> 10000 nM	> 20000 nM		2160 nM		> 20000 nM	58.9 nM			EC50 [1, 29]: > 10000 nM; EC50 ([2]; C2C12, read-out: Wnt pot. EC50): 30 nM; IC50 [4, 30]: 2000 nM; IC50 [5, 31]: 630 nM; IC50 [6, 32]: 410 nM; IC50 [7, 33]: 510 nM; IC50 [8, 34]: 930 nM; IC50 [9, 35]: 120 nM; IC50 ([14]; read-out: Anti-Angio IC50): > 10000 nM; IC50 [15, 36]: 2200 nM; EC50 ([16]; read-out: Ins. sec. EC50): > 10000 nM; IC50 [18, 37]: 59 nM
O=C1c2c(O)ccc(O)c2C(=O)c2c(NCCNCCO)ccc(NCCNCCO)c21 [mitoxantrone]	> 10000 nM	30.3 nM	> 20000 nM	7410 nM	1600 nM	1230 nM	1830 nM	7590 nM	1030 nM	> 20000 nM	> 20000 nM	> 10000 nM	> 20000 nM	4.4 nM	1720 nM	> 10000 nM	> 20000 nM	1 nM			
Cn1cnc([N+](=O)[O-])c1Sc1ncnc2nc[nH]c12 [Azathioprine]	> 10000 nM	> 10000 nM		10300 nM	364 nM	207 nM	9440 nM	> 20000 nM	2660 nM			> 10000 nM		> 10000 nM	> 20000 nM	> 10000 nM		623 nM			IC50 [3]: > 20000 nM; IC50 [10]: > 20000 nM; IC50 [11]: > 20000 nM; IC50 [13]: > 20000 nM; IC50 [17]: > 20000 nM
COc1ccc(-c2ccc3cc(C(=O)O)ccc3c2)cc1C12CC3CC(CC(C3)C1)C2 [Adapalene]	> 10000 nM	> 10000 nM	> 20000 nM	787 nM	597 nM	590 nM	405 nM	1120 nM	444 nM	7100 nM	5570 nM	> 10000 nM	7250 nM	524 nM	1780 nM	> 10000 nM	> 20000 nM	945 nM			
Sc1ncnc2nc[nH]c12 [Mercaptopurine]	> 10000 nM	> 10000 nM	> 20000 nM	1300 nM	260 nM	259 nM	1040 nM	635 nM	659 nM	> 20000 nM	> 20000 nM	> 10000 nM	> 20000 nM	915 nM	> 20000 nM	> 10000 nM	> 20000 nM	1420 nM			
O=C(O)c1ccc(-n2nc(-c3ccccc3O)nc2-c2ccccc2O)cc1 [deferasirox]	> 10000 nM	> 10000 nM		409 nM	651 nM	438 nM	77.6 nM	516 nM	100 nM			> 10000 nM		2090 nM	233 nM	> 10000 nM		242 nM	> 20000 nM	> 20000 nM	IC50 ([11]; read-out: JAK2): 18200 nM; IC50 ([13]; read-out: GSK3b): > 20000 nM; IC50 ([17]; read-out: p70S6K1): > 20000 nM
CCCSc1ccc2nc(NC(=O)OC)[nH]c2c1 [Albendazole]	> 10000 nM	1280 nM		502 nM	108 nM	85.2 nM	> 20000 nM	> 20000 nM	165 nM			61.2 nM		355 nM	> 20000 nM	> 10000 nM		154 nM	> 20000 nM	> 20000 nM	IC50 ([11]; read-out: JAK2): > 20000 nM; IC50 ([13]; read-out: GSK3b): > 20000 nM; IC50 ([17]; read-out: p70S6K1): > 20000 nM
Cc1nc2ccc(CN(C)c3ccc(C(=O)N[C@@H](CCC(=O)O)C(=O)O)s3)cc2c(=O)[nH]1 [raltitrexed, reference compound]		4.2 nM				4.24 nM			2.88 nM			> 10000 nM		354 nM				2.3 nM	> 20000 nM	> 20000 nM	EC50 [1, 29]: > 10000 nM; EC50 ([2]; C2C12, read-out: Wnt pot. EC50): 4 nM; IC50 [4, 30]: > 20000 nM; IC50 [5, 31]: > 20000 nM; IC50 [6, 32]: 4 nM; IC50 [7, 33]: 1 nM; IC50 [8, 34]: > 20000 nM; IC50 [9, 35]: 3 nM; IC50 ([11]; read-out: JAK2): > 20000 nM; IC50 ([13]; read-out: GSK3b): 3990 nM; IC50 ([14]; read-out: Anti-Angio IC50): 350 nM; IC50 [15, 36]: > 20000 nM; EC50 ([16]; read-out: Ins. sec. EC50): > 10000 nM; IC50 ([17]; read-out: p70S6K1): > 20000 nM; IC50 [18, 37]: 2 nM
COc1cccc2c1C(=O)c1c(O)c3c(c(O)c1C2=O)C[C@@](O)(C(C)=O)C[C@@H]3O[C@H]1C[C@H](N)[C@H](O)[C@H](C)O1 [Daunorubicin]				9250 nM															> 20000 nM	> 20000 nM	EC50 ([1]; IC50 / EC50, NCI-H716, read-out: GLP 1 Secretion): > 10000 nM; EC50 ([2]; C2C12, IC50 / EC50, C2C12 beta-catenin translocation, read-out: Wnt Pathway): 6.1 nM; IC50 ([5]; DLD-1, basal, read-out: Basal_Viability ATP DLD-1): 188 nM; IC50 ([6]; HCT-116, basal, read-out: Basal_Viability ATP HCT116): 50.9 nM; IC50 ([7]; SW480, basal, read-out: Basal_Viability ATP SW480): 1470 nM; IC50 ([8]; Homo sapiens, HT-29; read-out: Basal_Viability ATP HT-29): 648 nM; IC50 ([9]; Homo sapiens, RKO; read-out: Basal_Viability ATP RKO): 118 nM; IC50 ([11]; read-out: JAK2): > 20000 nM; EC50 ([12]; IC50 / EC50): 46.5 nM; IC50 ([13]; read-out: GSK3b): > 20000 nM; IC50 ([14]; IC50 / EC50, endothelial tube area, ADSC/ECFC co-culture, read-out: Anti-Angiogenesis): > 10000 nM; IC50 ([15]; SNU-C1, basal, read-out: Basal_Viability ATP SNU-C1): 338 nM; EC50 ([16]; IC50 / EC50, read-out: Insulin Secretion): > 10000 nM; IC50 ([17]; read-out: p70S6K1): > 20000 nM; IC50 ([18]; HCT-116, GSK3b inhibitor pretreated, read-out: GSK3b inh pretreated_Viability ATP HCT116): 55.4 nM
